Like-named read-outs stand apart in the source and are kept apart here.
How the values were obtained:
Solubility in water = format: physicochemical
[1] = Acute toxicity, SWISS mouse (median lethal dose); settings: in vivo, read-out: Median lethan dose
Protocol: (§1) The toxicities which are acute with the SWISS mouse and chronic with the albino rat are determined according to the usual standardized protocols.

TG 180 strain [2] = assay: In vivo antitumoral test with the mouse, first experiment; set-up: species or system SWISS mouse; settings: for number of survivors (tumor +) / number of survivors (tumor -) / number of animals with tumors: 15 mice per batch; for number of survivors (tumor +) / number of survivors (tumor -): compounds I to V alternately with CP and interferon; for number of animals with tumors: compounds I to V alternately with CP and interferon (0.5 ml of 8 mmolar solution), three weeks; for antitumoral therapeutic efficiency: with respect to reference batches No. 1, 2, 3 and 4, in words
Protocol: (3) In vivo antitumoral tests with the mouse.
The studies on the antitumoral properties have been carried out with the mouse according the CHANY and CERRUTI protocol (Int. J. Cancer, 1982, 30, 489) on the hereabove compounds I to V.
In order to obtain a tumor or tumors with mice, one uses the TG 180 strain (injection via the i.p. route of 10^6 cells for a male mouse of 25 g and of 0.1 ml of a solution of Corynbacterium Parvum Merieux (CP)).
This experiment bears on 135 SWISS mice devided into 9 batches of 15 mice each. After injection on day D0 of the TG 180 and CP cells, one proceeds in the following manner:
The reference batch No. 1 is treated every day with an injection of placebo.
The reference batch No. 2 is treated every day with an injection of CP (0.1 ml).
The reference batch No. 3 is treated every day with an injection of interferon EAT-113, 0.5 ml.
The reference batch No. 4 is treated every day alternately with CP and with interferon EAT-113, with the same doses as hereabove.
The experimental batches are treated, alternately on day D+1 with the compound according to the invention (0.5 ml of an 8 mmolar solution of a compound I to V), on day D+2 with interferon EAT-113, on day D+3 with CP, and this for three weeks.
The number of survivors is noted, as well as the presence or not of a tumor (tumor+ or tumor-) in the survivors five weeks after day D0.

rat [3] = assay: Lethality in the rat; format: in vivo; settings: administration of 1.12 g/kg to the rat
Protocol: as §1

TG 180 strain [4] = assay: In vivo antitumoral test with the mouse, first experiment; set-up: species or system SWISS mouse; settings: 15 mice per batch; compounds I to V alternately with CP and interferon
[5] = test system: neoplasic mammary cells (strain NCF 410); assay: In vitro action on neoplasic mammary cells; format: cell-based; settings: association with interferon EAT-113; in words
TG 180 strain [6] = assay: In vivo antitumoral test with the mouse, second experiment (dose effect)
[7] = test system: Herpes hominis type II virus; settings: in vivo, with interferon EAT-113; in words
[8] = test system: cells infected by the murine AIDS TR-26 virus; assay: In vitro action on cells infected by murine AIDS virus; format: cell-based; settings: in words
[9] = Solubilizing of the products for the in vivo antitumoral test; format: physicochemical; settings: explanation for the small number of survivors; in words
rat [10] = settings: Merck Index 10th edition; cited from earlier work
TG 180 strain [11] = settings: mouse; cited from earlier work
[12] = rabbit, i.v. 0.12 g/kg, t=60 min; cited from earlier work
man = settings: massive dose; Brazier et al; in words; cited from earlier work
herpes virus = settings: in words; cited from earlier work
fibroblasts = settings: in words; cited from earlier work

CCCC(=O)O[C@@H]1[C@H]2OC(C)(C)O[C@H]2O[C@@H]1[C@H]1COC(C)(C)O1 [Compound I, O-butanoyl-3-di-O-isopropylidene 1,2: 5,6 α-D-glucofuranose]
solubility in water (Solubility in water; in words): slightly soluble in water
LD50 ([1]; ip): 1750 ± 390 mg/kg
LD50 ([1]; oral route): > 8000 mg/kg
number of survivors (tumor +) (TG 180 strain [2]): 3
number of survivors (tumor -) (TG 180 strain [2]): 7
number of animals with tumors (TG 180 strain [2]): 9
antitumoral therapeutic efficiency (TG 180 strain [2]): very good antitumoral therapeutic efficiency
lethality (rat [3]): does not cause any lethality
number of survivors after 6 weeks (TG 180 strain [4]): 10

CCCC(=O)O[C@@H]1[C@H]2OC(C)(C)O[C@H]2O[C@@H]1[C@H](O)CO [Compound II]
solubility (Solubility in water; water, room temperature): > 100 mg/mL
LD50 ([1]; ip): 4200 ± 400 mg/kg
LD50 ([1]; oral route): > 8000 mg/kg
number of survivors (tumor +) (TG 180 strain [2]): 0
number of survivors (tumor -) (TG 180 strain [2]): 9
number of animals with tumors (TG 180 strain [2]): 10
antitumoral therapeutic efficiency (TG 180 strain [2]): very good antitumoral therapeutic efficiency
in vitro action compared with arginine butyrate and interferon EAT-113 [5]: stronger than the association of arginine butyrate and interferon EAT-113
survival after 100 days (TG 180 strain [6]; administered alternately with CP and interferon, whatever the concentration between 0.25 and 50 mmol/l): 30 mice amongst 45
number of surviving mice after 100 days (TG 180 strain [6]; alternately with CP, interferon omitted, average, 0.5 to 50 millimoles/l): 20 mice amongst 45
therapeutic results of the association with CP alone compared with interferon, CP plus arginine butyrate (TG 180 strain [6]; compound II plus CP, no interferon, in words): as good as the association of interferon with CP plus arginine butyrate
dose sufficient for obtaining the maximum therapeutic effect (TG 180 strain [6]; mouse): ≤ 0.44 mg of potential n-butyric acid per kilogramme of mouse
potentialization of the action of interferon EAT-113 [7]: potentialization of the action of interferon EAT-113 on the Herpes hominis type II virus
action in vitro compared with arginine butyrate [8]: stronger action in vitro on the cells infected by the murine AIDS TR-26 virus than the arginine butyrate
number of survivors after 6 weeks (TG 180 strain [4]): 9

CCCC(=O)OC[C@@H](O)[C@H]1O[C@@H]2OC(C)(C)O[C@@H]2[C@H]1O [III, O-butanoyl-6-O-isopropylidene-1,2α-D-glucofuranose]
LD50 ([1]; ip): 3000 ± 350 mg/kg
LD50 ([1]; oral route): > 8000 mg/kg
number of survivors (tumor +) (TG 180 strain [2]): 3
number of survivors (tumor -) (TG 180 strain [2]): 8
number of animals with tumors (TG 180 strain [2]): 7
antitumoral therapeutic efficiency (TG 180 strain [2]): very good antitumoral therapeutic efficiency
number of survivors after 6 weeks (TG 180 strain [4]): 11

CCCC(=O)OC[C@@H](OC(=O)CCC)[C@H]1O[C@@H]2OC(C)(C)O[C@@H]2[C@H]1OC(=O)CCC [IV, tri-O-butanoyl 3,5,6-O-isopropylidene-1,2 α-D-glucofuranose]
solubilizing [9]: difficulties for solubilizing these products
LD50 ([1]; ip): > 8000 mg/kg
LD50 ([1]; oral route): > 8000 mg/kg
number of survivors (tumor +) (TG 180 strain [2]): 0
number of survivors (tumor -) (TG 180 strain [2]): 3
number of animals with tumors (TG 180 strain [2]): 13
number of survivors after 6 weeks (TG 180 strain [4]): 3

CCCC(=O)OCC(O)CO (centres unmarked) [IX, O-n-butanoyl-1, propane diol-2,3]
LD50 ([1]; ip): 2250 ± 230 mg/kg
LD50 ([1]; oral route): > 8000 mg/kg

CCCC(=O)OC[C@H]1O[C@@H]2OC(C)(C)O[C@@H]2[C@H]2OC(C)(C)O[C@H]21 [V, O-n-butanoyl-6 di-O-isopropylidene-1,2:3,4α-D-galactopyranose]
solubilizing [9]: difficulties for solubilizing these products
LD50 ([1]; ip): 2500 ± 400 mg/kg
LD50 ([1]; oral route): > 8000 mg/kg
number of survivors (tumor +) (TG 180 strain [2]): 0
number of survivors (tumor -) (TG 180 strain [2]): 3
number of animals with tumors (TG 180 strain [2]): 12
number of survivors after 6 weeks (TG 180 strain [4]): 3

CCCC(=O)OC[C@H]1OC(OC(=O)CCC)[C@H](OC(=O)CCC)[C@@H](OC(=O)CCC)[C@H]1OC(=O)CCC (stereo partly drawn) [VI, penta O-n-butanoyl-1,2,3,4,6 D-galactopyranose]
LD50 ([1]; ip): > 8000 mg/kg
LD50 ([1]; oral route): > 8000 mg/kg

CCCC(=O)OC[C@H]1OC(OC(=O)CCC)[C@H](OC(=O)CCC)[C@@H](OC(=O)CCC)[C@@H]1OC(=O)CCC (stereo partly drawn) [VII, penta- O-n-butanoyl-1,2,3,4,6 D-glucopyranose]
LD50 ([1]; ip): > 8000 mg/kg
LD50 ([1]; oral route): > 8000 mg/kg

CCCC(=O)OCC1COC(C)(C)O1 (centres unmarked) [VIII, O-n-butanoyl-1-isopropylidene-2,3-glyceryl]
LD50 ([1]; ip): 5400 ± 300 mg/kg
LD50 ([1]; oral route): > 8000 mg/kg

CCCCCCCCCCCCCCCC(=O)OCC(COC(=O)CCC)OC(=O)CCCCCCCCCCCCCCC (centres unmarked) [X, O-butanoyl-3-di-O-palmitoyl-1,2 glyceryl]
LD50 ([1]; ip): > 2000 mg/kg
LD50 ([1]; oral route): > 6000 mg/kg

CCCCCCCCCCCCCCCC(=O)OCC(COC(=O)CCC)OC(=O)CCC (centres unmarked) [XI, di-O-butanoyl-2,3 O-palmitoyl-1-glyceryl]
LD50 ([1]; ip): > 8000 mg/kg
LD50 ([1]; oral route): > 8000 mg/kg

CC(C)=O [acetone]
median lethal dose p.o. (rat [10]): 10.7 mL/kg

CCCC(=O)O [arginine n-butyrate]
surviving mice after 100 days (TG 180 strain [6]; association of CP plus arginine butyrate without interferon): 8 mice amongst 45
therapeutic efficiency (TG 180 strain [6]; association of CP plus arginine butyrate without interferon, in words): low therapeutic efficiency
optimal dose advocated (TG 180 strain [11]): 14 mg of butyric acid
n-butyric acid present in serum [12]: 0 mmol/L
side effects in man (man): side effects in man, of the hyperammoniemy type with a reduction of the insulin secretion and disturbances of the urea cycle and of glucose metabolism

CCCC(=O)[O-].[Na+] [sodium n-butyrate]
antiviral actions (herpes virus): antiviral actions of sodium butyrate have also been characterized for the herpes virus
inhibiting actions on the growth of fibroblasts (fibroblasts): interesting inhibiting actions on the growth of fibroblasts

Source: patent US5185436A, “Esters of normal butyric acid and their use as pharmaceuticals” (priority 1990, dated 1993)
